According to BindingDB's records for doi:10.1016/j.bioorg.2015.02.009 (Kyushu Institute of Technology, 2015):

Experiments:
Assay in all cases: HDAC Enzyme Activity Assay
Histone deacetylase 6 = molecular target: T1, Histone deacetylase 6 (Mus musculus, UniProt Q9Z2V5)
T1 sequence (Q9Z2V5 whole entry): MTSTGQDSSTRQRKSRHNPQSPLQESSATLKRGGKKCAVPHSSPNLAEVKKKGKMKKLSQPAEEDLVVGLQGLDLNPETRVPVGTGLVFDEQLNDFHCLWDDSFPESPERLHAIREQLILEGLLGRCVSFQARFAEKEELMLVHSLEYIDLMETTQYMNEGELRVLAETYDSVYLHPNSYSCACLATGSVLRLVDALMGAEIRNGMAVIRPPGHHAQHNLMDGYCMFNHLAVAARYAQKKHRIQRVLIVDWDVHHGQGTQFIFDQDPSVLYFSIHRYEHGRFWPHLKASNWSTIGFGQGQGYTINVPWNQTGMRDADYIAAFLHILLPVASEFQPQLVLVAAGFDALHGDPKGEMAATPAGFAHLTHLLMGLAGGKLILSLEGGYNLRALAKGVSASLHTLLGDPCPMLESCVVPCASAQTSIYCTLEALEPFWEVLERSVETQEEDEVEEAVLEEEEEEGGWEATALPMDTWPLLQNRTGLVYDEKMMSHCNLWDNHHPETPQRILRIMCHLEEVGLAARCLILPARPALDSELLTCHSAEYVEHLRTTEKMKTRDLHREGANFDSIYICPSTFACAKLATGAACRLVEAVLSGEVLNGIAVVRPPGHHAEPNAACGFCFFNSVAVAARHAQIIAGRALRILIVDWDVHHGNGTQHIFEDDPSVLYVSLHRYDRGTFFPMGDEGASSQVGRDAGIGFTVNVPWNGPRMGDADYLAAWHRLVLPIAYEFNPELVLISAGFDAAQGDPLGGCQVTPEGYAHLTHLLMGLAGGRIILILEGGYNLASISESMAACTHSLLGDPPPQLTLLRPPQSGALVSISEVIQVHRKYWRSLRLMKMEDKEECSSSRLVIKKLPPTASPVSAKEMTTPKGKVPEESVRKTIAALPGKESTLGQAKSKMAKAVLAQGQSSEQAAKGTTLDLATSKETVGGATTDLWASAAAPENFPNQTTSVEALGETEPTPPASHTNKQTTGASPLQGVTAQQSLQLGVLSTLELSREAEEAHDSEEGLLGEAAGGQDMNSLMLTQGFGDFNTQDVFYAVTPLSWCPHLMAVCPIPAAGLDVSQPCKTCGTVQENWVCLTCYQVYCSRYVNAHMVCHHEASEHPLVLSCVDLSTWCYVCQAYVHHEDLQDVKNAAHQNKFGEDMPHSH
Protocol: (§1) For the enzyme assay, 10 µL of the enzyme fraction was added to 1 µL of fluorescent substrate (2 mM Ac-KGLGK(Ac)-MCA) and 9 µL of histone deacetylase buffer, and the mixture was incubated at 37 °C for 30 min. The reaction was stopped by the addition of 30 µL of trypsin (20 mg/mL) and incubated at 37 °C for 15 min. The released amino methyl coumarin (AMC) was measured using a fluorescence plate reader. DTT was added simultaneously with drugs to the enzyme solutions

Histone deacetylase 1 = Histone deacetylase 1 (Homo sapiens, UniProt Q13547)
Histone deacetylase 1, sequence (Q13547 whole entry): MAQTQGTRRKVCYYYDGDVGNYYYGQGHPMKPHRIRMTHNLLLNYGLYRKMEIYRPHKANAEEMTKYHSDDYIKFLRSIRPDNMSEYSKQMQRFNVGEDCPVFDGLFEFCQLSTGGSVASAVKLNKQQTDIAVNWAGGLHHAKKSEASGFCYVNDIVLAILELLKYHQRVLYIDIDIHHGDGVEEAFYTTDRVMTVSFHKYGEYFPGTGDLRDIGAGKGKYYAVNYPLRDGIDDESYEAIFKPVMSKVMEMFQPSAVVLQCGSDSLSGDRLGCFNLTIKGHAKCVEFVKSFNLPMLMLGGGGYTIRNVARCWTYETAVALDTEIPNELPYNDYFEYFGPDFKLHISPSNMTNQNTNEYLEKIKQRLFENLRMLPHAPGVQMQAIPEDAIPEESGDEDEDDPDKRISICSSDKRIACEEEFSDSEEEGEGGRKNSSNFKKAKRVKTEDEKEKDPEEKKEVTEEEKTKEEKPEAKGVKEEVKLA
Protocol: as §1

Histone deacetylase 4 = Histone deacetylase 4 (Homo sapiens, UniProt P56524)
Histone deacetylase 4, sequence (P56524 whole entry): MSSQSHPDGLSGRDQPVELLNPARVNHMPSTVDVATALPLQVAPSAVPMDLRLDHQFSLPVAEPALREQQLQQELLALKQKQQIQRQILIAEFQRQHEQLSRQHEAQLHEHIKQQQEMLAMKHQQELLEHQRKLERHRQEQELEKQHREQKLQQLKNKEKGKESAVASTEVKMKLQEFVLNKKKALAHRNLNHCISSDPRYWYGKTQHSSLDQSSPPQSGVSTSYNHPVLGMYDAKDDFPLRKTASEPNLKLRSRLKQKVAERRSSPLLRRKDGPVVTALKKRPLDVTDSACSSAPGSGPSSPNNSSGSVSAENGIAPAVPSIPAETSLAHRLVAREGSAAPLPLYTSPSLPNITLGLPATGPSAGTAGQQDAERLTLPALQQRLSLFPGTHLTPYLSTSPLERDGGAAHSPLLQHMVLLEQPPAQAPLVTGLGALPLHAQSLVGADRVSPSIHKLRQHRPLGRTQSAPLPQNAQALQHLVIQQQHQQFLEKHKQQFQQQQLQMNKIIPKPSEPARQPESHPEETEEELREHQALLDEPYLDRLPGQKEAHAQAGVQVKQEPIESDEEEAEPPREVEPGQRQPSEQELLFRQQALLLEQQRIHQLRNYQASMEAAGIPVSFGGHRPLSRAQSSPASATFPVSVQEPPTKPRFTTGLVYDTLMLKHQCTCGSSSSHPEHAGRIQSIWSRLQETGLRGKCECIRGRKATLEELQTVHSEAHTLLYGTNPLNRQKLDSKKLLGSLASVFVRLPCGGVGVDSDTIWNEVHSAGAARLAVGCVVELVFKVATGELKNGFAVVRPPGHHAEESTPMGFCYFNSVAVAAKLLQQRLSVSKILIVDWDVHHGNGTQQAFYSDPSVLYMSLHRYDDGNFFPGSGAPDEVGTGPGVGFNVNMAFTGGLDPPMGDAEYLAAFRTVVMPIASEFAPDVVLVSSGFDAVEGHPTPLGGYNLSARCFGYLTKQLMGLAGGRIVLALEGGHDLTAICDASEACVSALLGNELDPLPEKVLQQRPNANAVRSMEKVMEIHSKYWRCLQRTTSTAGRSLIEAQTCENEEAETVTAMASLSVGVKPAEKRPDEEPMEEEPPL
Protocol: as §1

IC50 (Histone deacetylase 6) [nM] | IC50 (Histone deacetylase 1) [nM] | IC50 (Histone deacetylase 4) [nM] | Structure (SMILES)
7.5 | 8.2 | 3.4 | O=C(NC(CCCCCSSCCCCC[C@H](NC(=O)OCc1ccccc1)C(=O)Nc1cccc2cccnc12)C(=O)Nc1cccc2cccnc12)OCc1ccccc1 (stereo partly drawn) [(Z-L-Am7(S-)-QA)2 (4)]
29 | 19 | 18 | COCCOCC(=O)SCCCCC[C@H](NC(=O)OCc1ccccc1)C(=O)Nc1cccc2cccnc12 [Z-L-Am7(AcEtMe)-QA (2)]
3.2 | 4.9 | 2 | O=C(N[C@@H](CCCCCSSCCO)C(=O)Nc1cccc2cccnc12)OCc1ccccc1 [Z-L-Am7(betaMe)-QA (3)]

Continued, compound first:

Structure (SMILES) | IC50 (Histone deacetylase 6) [nM] | IC50 (Histone deacetylase 1) [nM] | IC50 (Histone deacetylase 4) [nM]
O=C(CCCCC[C@H](NC(=O)OCc1ccccc1)C(=O)Nc1cccc2cccnc12)NO [(S)-benzyl 8-(hydroxyamino)-1,8-dioxo-1-(quinolin-8-ylamino)octan-2-ylcarbamate] | 45 | 10 | 11
CC(=O)SCCCCC[C@H](NC(=O)OCc1ccccc1)C(=O)Nc1cccc2cccnc12 [Z-L-Am7(Ac)-QA (1)] | 34 | 47 | 18
